According to patent publication US6821774B1, “Compositions and methods for increasing cholesterol efflux and raising HDL using ATP binding cassette transporter ABC1” (CV Therapeutics, Inc., priority 1999, dated 2004):

Experiments:
Assay type in all cases: cell-based, mouse
[1] = tested on: ABC1 mRNA; assay: ABC1 mRNA expression by RT-PCR in RAW 264.7 cells; conditions: 10 μM, 24 hours, serum-free DMEM/BSA
Procedure: RT-PCR: Quantitative PCR was carried out using the GeneAmp 5700 Sequence Detection System (Perkin-Elmer Applied Biosystems, Foster City, Calif.). Briefly, 500 ng of DNase-treated mRNA was reverse transcribed using random hexamer primers at 2.5 μM. Approximately 5% of this reaction was amplified by PCR using the SYBR green core kit (PE Applied Biosystems, Foster City, Calif.; Cat. #4304886) and human ABC1 primers LF: 5′-[…] (SEQ ID NO: 11) and LR: 5′-[…] (SEQ ID NO: 12) to yield an 82 bp fragment corresponding to nucleotides 7018-7099 of human ABC1. PCR cycle conditions were as follows: 10 minutes 95° C.; followed by 40 cycles of 95° C., 15 seconds; and 60° C., 60 secounds. The mRNA in each sample was quantitated by detecting the increase in fluorescence caused by SYBR green binding to the double-stranded amplification product generated during each PCR cycle. All samples were run in triplicate and normalized against β-actin mRNA, amplified in parallel reactions with primers actinF: 5′-[…] (SEQ ID NO: 54) and actinB: 5′-[…] […]
Mouse RAW 264.7 cells were grown to subconfluence in DMEM/10% FBS and then treated for 24 hours in serum-free DMEM/BSA with either 9-cis retinoic acid (10 μM), 20-hydroxycholesterol (10 μM), or both ligands together (20 μM total). […] RNA was extracted, treated with DNase, and ABC1 mRNA measured by RT-PCR using PE Biosystems SYBR Green Technology as described in Example 9.

[2] = tested on: 5′ flanking region of ABC1; assay: Luciferase reporter assay with ABC1 5′ flanking region constructs in RAW 264.7 cells; conditions: wild-type sequence nucleotides 1080-1643; single ligand or both together
Procedure: (§1) Luciferase Assay: Following transfection, the cells in each well were lysed in 70 μl of 1× cell lysis reagent (Promega, Madison, Wis., Cat. #E3971), subjected to one freeze-thaw cycle, and the lysate cleared by centrifugation for 5 minutes at 12,000 g. After centrifugation, 100 μl of luciferase assay reagent (Promega, Madison, Wis.; Cat. #E1501) was added to 10 μl of lysate. The luciferase activity of each lysate was measured as light units using a luminometer. Additionally, the β-galactosidase activity of each lysate was measured using the chemiluminescent assay reagents supplied in the Galacto-light kit according to the manufacturer's instructions (Tropix Inc., Bedford, Mass.: Cat. #BL100G). The normalized luciferase activity for each lysate was determined by dividing the luciferase activity value by the determined β-galactosidase value and reported as relative light units.
Construction of Reporter Constructs: Reporter construct pAPR1 and control reporter construct pGL3-Basic were obtained as described in Example 15. […]
Transfection of Reporter Constructs: The RAW 264.7 cells were maintained in culture and transfected with either pGL3-Basic (1 μg), pAPR1 (1 μg), or one of the other reporter constructs according to the method described in Example 15. […] The luciferase activity was measured and reported as relative light units as described in Example 15.

[3] = tested on: RAW 264.7 cells; assay: Apo A-I-mediated cholesterol efflux assay in cholesterol-loaded RAW 264.7 macrophage cells
Procedure: To determine whether ligands for nuclear receptors affect the process of apolipoprotein-mediated cholesterol efflux, various ligands were tested using the apo A-I-mediated cholesterol efflux assay described in Example 12. The nuclear receptor superfamily includes several members, such as the liver receptor LXR, the retinoid receptor RXR, and the peroxisome proliferator-activated receptor PPAR, which have been implicated in lipid metabolism (Russell. D. W., Cell, 97:539-542 (1999); Spiegelman, B. W., Cell, 93:153-155 (1998); Janowski et al., Nature, 383:728-731 (1996)). […] Using the above-described assay, 9 cis-retinoic acid (RXR ligand), oxysterol (LXR ligand), and fenfibrate (PPAR ligand) was tested to determine the effect on cholesterol efflux.
To determine whether eicosanoids affect the process of apolipoprotein-mediated cholesterol efflux, PGE1 and PG12 were tested using the apo A-I-mediated cholesterol efflux assay described in Example 12.

[4] = tested on: ABC1 promoter; assay: pAPR1 luciferase reporter assay (ABC1 promoter) in RAW 264.7 cells; conditions: 24 hours
From the text: Construction of Reporter Plasmids: Plasmid pGL3-Basic (Promega, Madison, Wis.; Cat. #E1751) was used as a control plasmid containing the promoter less luciferase gene. The reporter construct containing the ABC1 promoter and luciferase gene was made by cloning a genomic fragment from the 5′ flanking region of the ABC1 gene (hAPR1 5′ promoter, corresponding to nucleotides 1080-1643 of SEQ ID NO: 3) into the SacI site of the GL3-Basic plasmid to generate plasmid GL-6a. Next, plasmid GL-6a was digested with SpeI and Acc65I. […]
as §1, with “After centrifugation, 100 μl of luciferase assay reagent (Promega, Madison, Wis.; Cat. #E1501) was added to 10 μl of lysate.” left out, “units. […]” for “units.”

[5] = tested on: mutated sterol response element of ABC1 5′ flanking region; assay: Luciferase reporter assay with mutated sterol response element construct (nucleotides 1080-1643) in RAW 264.7 cells; conditions: mutated sequence; oxysterol 10 μM
Procedure: as §1
Transfection of Reporter Constructs: The RAW 264.7 cells were maintained in culture and transfected with either pGL3-Basic (1 μg), pAPR1 (1 μg), or one of the other reporter constructs according to the method described in Example 15. […] The luciferase activity was measured and reported as relative light units as described in Example 15. […]

SMILES: CC1=C(/C=C/C(C)=C\C=C\C(C)=C\C(=O)O)C(C)(C)CCC1 [9-cis retinoic acid]
- change in ABC1 mRNA expression [1]: increase in ABC1 mRNA expression
- transcriptional response (luciferase activity) [2]: produced a transcritional response
- increase in apoAI-induced cholesterol efflux ([3]; 30 ng/ml, cholesterol-loaded mouse macrophage cells): ~3 fold
- dose dependence of cholesterol efflux from macrophage cells ([3]; 0.3, 3.0 or 30 ng/ml): dose-dependent manner
- cholesterol efflux ([3]; apo A-I and 9 cis-retinoic acid 30 ng/ml): 16%
- cholesterol efflux counts ([3]; apo A-I plus 0.3 ng/ml 9-cis-RA): 1522 c.p.m.
- cholesterol efflux counts ([3]; apo A-I plus 3.0 ng/ml 9-cis-RA): 3568 c.p.m.
- cholesterol efflux counts ([3]; apo A-I plus 30 ng/ml 9-cis-RA): 8597 c.p.m.
- increase in luciferase activity compared with EtOH control ([4]; 9-cis RA 10 μM): 16 fold

SMILES: CC(C)CCC[C@](C)(O)[C@H]1CC[C@H]2[C@@H]3CC=C4C[C@@H](O)CC[C@]4(C)[C@H]3CC[C@@]21C [20(S)-hydroxycholesterol]
- change in ABC1 mRNA expression [1]: increase in ABC1 mRNA expression
- transcriptional response (luciferase activity) [2]: produced a transcritional response
- transcriptional response (luciferase activity) [5]: did not produce a transcriptional response
- increase in luciferase reporter activity compared with EtOH control ([4]; 20(S) OH-chol 10 μM): 19 fold

SMILES: CC(C)CC[C@@H](O)[C@@H](C)[C@H]1CC[C@H]2[C@@H]3CC=C4C[C@@H](O)CC[C@]4(C)[C@H]3CC[C@]12C [22(R)-hydroxycholesterol]
- transcriptional response (luciferase activity) [5]: did not produce a transcriptional response
- increase in apoAI-induced cholesterol efflux ([3]; 5 μg/ml, cholesterol-loaded mouse macrophage cells): ~3 fold
- effect on cholesterol efflux (data not shown) ([3]; similar assay, RAW 264.7 cells cholesterol-loaded for 48 hours): increase cholesterol efflux

SMILES: CCCCC[C@H](O)/C=C/[C@@H]1[C@H]2C/C(=C/CCCC(=O)O)O[C@H]2C[C@H]1O [PG12, prostacyclin]
- increase in apoAI-induced cholesterol efflux ([3]; 25 nm, cholesterol-loaded mouse macrophage cells): ~2 fold
- cholesterol efflux ([3]; apo A-I and PG12 25 nm): 10%

SMILES: CCCCC[C@H](O)/C=C/[C@H]1[C@H](O)CC(=O)[C@@H]1CCCCCCC(=O)O [PGE1, prostaglandin E1]
- increase in apoAI-induced cholesterol efflux ([3]; 25 nM, cholesterol-loaded mouse macrophage cells): ~3 fold
- cholesterol efflux ([3]; apo A-I and PGE1 25 nM): 15%

SMILES: CC(C)OC(=O)C(C)(C)Oc1ccc(C(=O)c2ccc(Cl)cc2)cc1 [fenfibrate]
- increase in cholesterol efflux ([3]; 3 μg/ml, cholesterol-loaded mouse macrophage cells): ~2 fold
- cholesterol efflux ([3]; apo A-I and fenfibrate 3 μg/ml): 10%
